Molecules are shown by their SMILES.

Assay [1] deals with T1, BLT2-expressing cells (CHO-BLT2 cells) (Homo sapiens, UniProt Q9NPC1).
T1 construct: HA; expressed in transfected cells
T1 sequence (Q9NPC1 with tags, fused parts or gaps): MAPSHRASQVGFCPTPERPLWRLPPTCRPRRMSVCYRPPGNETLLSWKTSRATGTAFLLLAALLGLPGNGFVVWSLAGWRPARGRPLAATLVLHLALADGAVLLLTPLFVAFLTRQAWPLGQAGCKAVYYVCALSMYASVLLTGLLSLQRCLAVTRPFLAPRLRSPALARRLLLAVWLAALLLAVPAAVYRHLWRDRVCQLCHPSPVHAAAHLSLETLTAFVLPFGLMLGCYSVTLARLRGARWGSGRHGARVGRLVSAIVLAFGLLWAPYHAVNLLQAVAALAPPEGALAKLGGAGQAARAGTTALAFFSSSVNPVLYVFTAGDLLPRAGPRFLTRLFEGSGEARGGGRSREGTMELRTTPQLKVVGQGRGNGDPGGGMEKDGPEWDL
The experiment in a line: MTT cell growth of LTB4-stimulated BLT2-expressing cells. To be noted: LTB4 300 nM; for inhibition at 10 µM: read-out: growth inhibitory effect; for cell growth compared with the control DMSO: pre-treated at 10 μM. It is filed as cell-based. The procedure: Cell viability according to treatment of the compounds prepared in the examples were measured by a 3-(4,5-dimethylthiazol-2-yl)-2,5-diphenyltetrazolium bromide (MTT) method.
More specifically, 1×10^4 each of the BLT2-nonexpressing cells (CHO-pcDNA3.1 cells) and BLT2-expressing cells (CHO-BLT2 cells), which were prepared in Experimental Example 1, were dispensed in a […], and cultured for 24 hours. Afterward, the culture medium was removed, a serum-free RPMI medium was added, and after two hours, the cells were pre-treated with each of the compound prepared in one of the examples (10 μM), 10 μM DMSO (compound solvent) as a control, and 10 μM 1-[5-ethyl-2-hydroxy-4-[[6-methyl-6-(1H-tetrazol-5-yl)heptyl]oxy]phenyl]-ethanone (LY255283; Cayman) as a positive control for 1 hour. Subsequently, after treatment of LTB4 (300 nM), the cells were cultured for 24 hours. 20 μL of an MTT solution (5 mg/mL, Sigma-Aldrich) was added to each well, the cells were cultured in a humid CO2 incubator at 37° C. for 4 hours, a supernatant was removed, and 200 μL of DMSO was added to each well to dissolve insoluble violet formazan crystals. Absorbance was measured using a microplate reader (Molecular Devices, Sunnyvale, Calif.) at 550 nm, and the measurement was repeated three times.

The target of the next assay is T2, BLT2 (Homo sapiens, UniProt Q9NPC1).
T2 construct: HA; expressed in transfected cells
T2 sequence (Q9NPC1 with tags, fused parts or gaps): T1 sequence (Q9NPC1 with tags, fused parts or gaps)
Put plainly: LTB4-induced chemotactic motility, Transwell, CHO-BLT2 cells. The class given is cell-based. The following applies: LTB4 300 nM; for inhibition at 10 µM: read-out: chemotactic motility inhibited compared with LTB4 (DMSO+). The protocol:
(§1) Chemotactic motility was analyzed using a Transwell chamber including a polycarbonate filter (8-μm pore size, Corning Costar) with a 6.5-mm diameter. Specifically, the lower surface of the filter was coated with 10 μg/mL fibronectin in a serum-free RPMI 1640 medium at 37° C. for 1 hour. The experiment was performed by placing the filter dried and coated with RPMI 1640 media containing various amounts of LTB4 in the lower wells of the Transwell chamber, and loading CHO cells stably expressing BLT1 and BLT2 into the upper wells containing serum-free RPMI 1640 media finally at 2×10^4 cells/100 μL. To evaluate the effect of inhibitors, the cells were pre-treated with each inhibitor for 30 minutes before dispensing. After the cells were cultured at 37° C. in 5% CO2 for 3 hours, the filters were fixed with methanol for 3 minutes, and stained with hematoxylin and eosin for 10 minutes. In the experiment, the cells were BLT2-expressing cells (CHO-BLT2 cells) and BLT1-expressing cells (CHO-BLT1 cells), and LY255283 and U75302 were used as positive controls for each type of the cells, and BLT2 ligand LTB4, (300 nM), BLT1 ligand LTB4 (10 nM), and lysophosphatidic acid (LPA; 100 nM) were used as comparative controls. The chemotactic motility was quantitatively analyzed by counting the cells on the lower side of the filter under an optical microscope (magnification, 200×). For each analysis, 6 fields were subjected to counting, each sample was analyzed twice, and the analysis was repeated three times.

For the next assay, the target named is T3, BLT1 (Homo sapiens, UniProt Q15722).
T3 construct: expressed in transfected cells; host or cells: CHO cells stably expressing BLT1 (CHO-BLT1)
T3 sequence (Q15722 whole entry, species assumed): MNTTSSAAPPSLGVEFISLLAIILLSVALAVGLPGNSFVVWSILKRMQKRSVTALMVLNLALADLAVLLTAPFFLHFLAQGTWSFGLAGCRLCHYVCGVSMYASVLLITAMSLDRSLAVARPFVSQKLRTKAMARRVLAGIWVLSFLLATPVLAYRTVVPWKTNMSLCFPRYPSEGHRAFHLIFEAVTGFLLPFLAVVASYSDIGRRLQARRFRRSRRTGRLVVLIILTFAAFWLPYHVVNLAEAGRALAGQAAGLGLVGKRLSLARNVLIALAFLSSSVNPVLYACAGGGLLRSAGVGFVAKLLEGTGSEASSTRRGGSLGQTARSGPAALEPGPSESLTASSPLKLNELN
The experiment in a line: LTB4-induced chemotactic motility, Transwell, CHO-BLT1 cells. The class given is cell-based. To be noted: 10 μM pre-treatment, LTB4 10 nM. The procedure: as §1

The test system of assay [2] is cancer cells (MDA-MB-231). Put plainly: Metastasis of breast cancer cells in nude mice. To be noted: MDA-MB-231 in nude mice, i.p.; LMT-696 and LY255283 2.5 mg/kg, U75302 0.25 mg/kg; 15 weeks. It is filed as in vivo. The protocol: An experiment for the metastasis of breast cancer cells according to the treatment of the compound of the present invention was approved by the Ethics Committee of Korea University, and all experimental animals used in this experiment were treated according to the approved guidelines of the Korea University Animal Care and Use Committee. Six-week-old female nude mice (Charles River, Wilmington, Mass.) were injected with cancer cells to confirm cancer cell metastasis. The breast cancer cells were pre-treated with the compound of the present invention (LMT-696, 10 μM), LY255283, U75302 and DMSO, and 24 hours later, harvested with trypsin-EDTA, resuspended in PBS, and then 2×10^6 of the breast cancer cells were intraperitoneally injected into mice anesthetized with zoletil (50 mg/kg). After five days, the compound of the present invention (LMT-696; 2.5 mg/kg), LY255283 (2.5 mg/kg), U75302 (0.25 mg/kg) and DMSO were injected intraperitoneally three times every five days. At 15 weeks after the injection of the breast cancer cells, the mice were dissected to observe the cancer cell metastasis.

The subject of assay [3] is asthma-induced mice (OVA+LPS). Put plainly: OVA+LPS-induced severe asthma mice: AHR and cell influx. It is filed as in vivo. To be noted: 10 mg/kg, airway constrictor 50 mg/ml. From the text:
Mast cells play a pivotal role in the initial reaction to asthma, and when an allergen enters the body from the outside through an airway, the mast cells are activated, thereby secreting various cytokines (interleukin-4 and interleukin-13). Due to the cytokines, the influx of inflammatory cells, the generation of mucus and the airway contraction occur. The inventors used 7-week-old (18 to 20 g) female BALB/c mice provided by Orient (Seoungnam, Korea) for the experiment to confirm the antiasthma effect, and then the asthma was induced in the mice. On the first and 14th days, 2.5 mg of an adjuvant, aluminum hydroxide gel (alum; Pierce, Rockford, Ill.) was included in […] of ovalbumin (OVA) to intraperitoneally sensitize female […] mice. On the 21st, 22nd and 23rd days of two initial sensitizations, 1% OVA was sprayed into the mice using an ultrasonic nebulizer. The compound of the present invention (LMT-696; 5 mg/kg), LY255283 (5 mg/kg, Cayman) or DMSO was intraperitoneally injected at the 1 hour before the 1% OVA spraying. On the 24th day of the initial sensitization, airway hyperresponsiveness (AHR) was detected, and on the 25th day, the mice were dissected to observe asthma phenotypes, for example, inflammatory cytokine IL-4 expression and the influx of inflammatory cells (neutrophils). In the case of lipopolysaccharide (LPS)-induced severe asthma animal models, on the 0, 1st, 2nd and 7th days, 75 μg of OVA and 1 mg of LPS were intranasally injected into Balb/c mice for sensitization. On the 14th, 15th, 21th and 22th days, 50 μg of OVA was injected into the nose for a challenge. The compound of the present invention (LMT-1013) (1, 3, 10 or 30 mg/kg), montelukast (10 mg/kg, DRS) or a control buffer (10% DMA, 5% Tween 80, 85% brine) were treated one hour before the challenge by injecting 50 μg of OVA into the nose. On the 23rd day of the initial sensitization, AHR was detected, and on the 24th day, the mice were dissected to observe a severe asthma phenotype, for example, the influx of the inflammatory cells (neutrophils). In addition, the AHR detection was performed after an airway constrictor, methacholine (6.25 to 50 mg/ml depending on conditions), was administered to the mice. The administration of the airway constrictor was performed by spraying through an inlet of the chamber using an ultrasonic nebulizer for 3 minutes. The AHR was analyzed using an enhanced pause as the indicator of the asthma phenomenon. Bronchoalveolar lavage fluid cell counts were quantified by counting cells under an optical microscope (magnification, 200×). In each analysis, 4 fields were subjected to counting, each sample was analyzed twice, and the analysis was repeated three times.

Take `CCCCC(=O)N(CC#Cc1ccc(C(=O)N2CCN(C(C)C)CC2)cc1)c1cccc(F)c1` [LMT-886, N-(3-fluorophenyl)-N-(3-(4-(4-isopropylpiperazine-1-carbonyl)phenyl)prop-2-ynyl)pentaneamide]: the inhibition at 10 µM in assay [1] came to 99%.

As to `CCCCC(=O)N(CC#Cc1ccc(C(=O)N2CCN(C(C)C)CC2)cc1)c1ccc(F)cc1` [LMT-841, N-(4-fluorophenyl)-N-(3-(4-(4-isopropylpiperazine-1-carbonyl)phenyl)prop-2-ynyl)pentaneamide], the inhibition at 10 µM in assay [1] worked out at 60%.

Consider `CCCCC(=O)N(CC#Cc1cccc(C(=O)N2CCNCC2)c1)c1ccccc1` [LMT-837, N-phenyl-N-(3-(3-(piperazine-1-carbonyl)phenyl)prop-2-ynyl)pentaneamide], for which the inhibition at 10 µM in assay [1] came to 65%.

For `CCCCC(=O)N(CC#Cc1ccc(C(=O)NC(C)C(=O)OC)cc1)c1ccccc1` (stereo not drawn) [LMT-1018, methyl 2-(4-(3-(N-phenylpentaneamido)prop-1-yn-1-yl)benzamido)propanoate], the inhibition at 10 µM in assay [1] was determined as 71.6%.

As to `CCCCC(=O)N(CC#Cc1ccc(C(=O)N2CCNCC2)cc1)c1ccccc1` [LMT-694, N-phenyl-N-(3-(4-(piperazine-1-carbonyl)phenyl)prop-2-ynyl)pentanamide], the “cell growth compared with the control DMSO” value in assay [1] came out at 16.7%. For the same compound, at BLT2 (10 μM pre-treatment), the inhibition at 10 µM stood at 90%. Besides, on BLT1, the “inhibitory effect on chemotactic motility” value is “did not exhibit the inhibitory effect”.

As to `CCc1cc(C(C)=O)c(O)cc1OCCCCCC(C)(C)c1nnn[nH]1` [LY255283, 1-[5-ethyl-2-hydroxy-4-[[6-methyl-6-(1H-tetrazol-5-yl)heptyl]oxy]phenyl]-ethanone, reference compound], the “cell growth compared with the control DMSO” value in assay [1] was “approximately 90%”. Further, the “chemotactic motility as compared with cells treated with the ligand LTB4” value at BLT2 (10 μM pre-treatment) was 90%. Further, the “metastasis of the cancer cells inhibited as compared with the control” value in assay [2] is reported as 36%.

On to `CCCCC/C=C\C[C@@H](O)/C=C/c1cccc(C[C@@H](O)CCCCO)n1` [U75302, reference compound], for which the “chemotactic motility as compared with cells treated with the ligand LTB4” value on BLT1 was found to be 90%. Also, in assay [2], the “metastasis of the cancer cells inhibited as compared with the control” value is recorded as “not inhibited”.

In the case of `CCCCC(=O)N(CC#Cc1cccc(C(=O)N2CCN(C(C)C)CC2)c1)c1ccccc1` [LMT-842, N-(3-(3-(4-isopropylpiperazine-1-carbonyl)phenyl)prop-2-ynyl)-N-phenylpentaneamide], the inhibition at 10 µM in assay [1] was determined as 70%.

As for `CC(C)(O)c1ccccc1CC[C@@H](SCC1(CC(=O)O)CC1)c1cccc(/C=C/c2ccc3ccc(Cl)cc3n2)c1` [montelukast, reference compound], the AHR reduced in assay [3] is 64%.

Consider `CCCCC(=O)N(CC#Cc1ccc(C(=O)N(CC)CC)cc1)c1ccccc1` [LMT-883, N,N-diethyl-4-(3-(N-phenylpentaneamido)prop-1-ynyl)benzamide], for which the inhibition at 10 µM in assay [1] stood at 99%.

Take `CCCCC(=O)N(CC#Cc1ccc(C(=O)NCCN(C)C)cc1)c1ccccc1` [LMT-1016, N-(2-(dimethylamino)ethyl)-4-(3-(N-phenylpentaneamido)prop-1-yn-1-yl)benzamide]: in assay [1], the inhibition at 10 µM was 99%.

In the case of `CCCCC(=O)N(CC#Cc1ccc(C(=O)NC(C)C(=O)O)cc1)c1ccccc1` (stereo not drawn) [LMT-1019, 2-(4-(3-(N-phenylpentaneamido)prop-1-yn-1-yl)benzamido)propanoic acid], in assay [1], the inhibition at 10 µM was found to be 99%.

Turning to `CCCCC(=O)N(CC#Cc1ccc(C(=O)N2CCN(C)CC2)cc1)c1ccccc1` [LMT-692, N-(3-(4-(4-methylpiperazine-1-carbonyl)phenyl)prop-2-ynyl)-N-phenylpentanamide], the “cell growth compared with the control DMSO” value in assay [1] was 88.0%. For the same compound, at BLT2 (10 μM pre-treatment), the inhibition at 10 µM amounted to 66%. For the same compound, the IC50 (as a rule, the concentration needed to halve the response being measured) at BLT2 (serum-free, read-out: IC50 of chemotactic motility inhibition) worked out at 7.57 µM. Moreover, the “inhibitory effect on chemotactic motility” value at BLT1 is reported as “did not exhibit the inhibitory effect”.

Source of the values: patent US10766857B2, “Compound having BLT inhibitory activity and composition, for preventing or treating inflammatory diseases, comprising same as active ingredient” (DONGGUK UNIVERSITY INDUSTRY-ACADEMIC COOPERATION FOUNDATION, priority 2015, dated 2020).
